PubChem BioAssay AID250 (DTP/NCI, 2004)
Where “and” joins values, the source holds several entries; their conditions need not be identical. Equal entries are not always repeated. Toxic doses and inconclusive results are not listed.

Test system: BDF1 mice, L1210 leukemia sc, survival T/C
Assay: NCI In Vivo Anticancer Drug Screen. Data for tumor model L1210 Leukemia (subcutaneous) in B6D2F1 (BDF1) mice
Settings: endpoint: median survival time, higher = longer survival
How it was run: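 Expressed as T/C: measurement in compound-treated, tumor-bearing mice relative to vehicle-treated control mice, based on survival or tumor size.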

[1] = dose: 39.0 mg/kg/injection, schedule: Q01DX Z (sc), vehicle: methylcellulose (MC)
[2] = dose: 65.0 mg/kg/injection, schedule: Q01DX Z (sc), vehicle: methylcellulose (MC)
[3] = dose: 108.0 mg/kg/injection, schedule: Q01DX Z (sc), vehicle: methylcellulose (MC)

SMILES: CC(=O)OCC(=O)[C@@]1(O)CC[C@H]2[C@@H]3CCC4=CC(=O)CC[C@]4(C)[C@@]3(F)[C@@H](O)C[C@@]21C
- T/C [1]: 100 % of control
- T/C [2]: 100 % of control
- T/C [3]: 100 % of control
- T/C (dose: 180.0 mg/kg/injection, schedule: Q01DX Z (sc), vehicle: methylcellulose (MC)): 104 % of control
- T/C (dose: 300.0 mg/kg/injection, schedule: Q01DX Z (sc), vehicle: methylcellulose (MC)): 100 % of control
- T/C (dose: 500.0 mg/kg/injection, schedule: Q01DX Z (sc), vehicle: methylcellulose (MC)): 100 % of control

SMILES: Nc1nc(=S)c2ncn(C3OC(COC(=O)c4ccc(Cl)cc4)C(OC(=O)c4ccc(Cl)cc4)C3OC(=O)c3ccc(Cl)cc3)c2[nH]1 (configuration not stated)
- T/C (dose: 12.5 mg/kg/injection, schedule: Q01DX Z (sc), vehicle: carboxymethylcellulose (CMC)): 100 % of control
- T/C (dose: 25.0 mg/kg/injection, schedule: Q01DX Z (sc), vehicle: carboxymethylcellulose (CMC)): 106 % of control
- T/C (dose: 50.0 mg/kg/injection, schedule: Q01DX Z (sc), vehicle: carboxymethylcellulose (CMC)): 100 % of control
- T/C (dose: 65.0 mg/kg/injection, schedule: Q01DX Z (sc), vehicle: carboxymethylcellulose (CMC)): 100 % of control
- T/C (dose: 100.0 mg/kg/injection, schedule: Q01DX Z (sc), vehicle: carboxymethylcellulose (CMC)): 112 % of control
- T/C (dose: 108.0 mg/kg/injection, schedule: Q01DX Z (sc), vehicle: carboxymethylcellulose (CMC)): 122 % of control
- T/C (dose: 200.0 mg/kg/injection, schedule: Q01DX Z (sc), vehicle: carboxymethylcellulose (CMC)): 150 % of control

SMILES: O=C(Nc1ccc(NC2=NCCN2)cc1)c1ccc(C(=O)Nc2ccc(NC3=NCCN3)cc2)cc1
- T/C (dose: 1.08 mg/kg/injection, schedule: Q01DX Z (sc), vehicle: water): 110 % of control
- T/C (dose: 1.8 mg/kg/injection, schedule: Q01DX Z (sc), vehicle: water): 110 % of control
- T/C (dose: 5.0 mg/kg/injection, schedule: Q01DX Z (sc), vehicle: water): 260 % of control
- T/C (dose: 8.4 mg/kg/injection, schedule: Q01DX Z (sc), vehicle: water): 175 % of control
- T/C (dose: 14.0 mg/kg/injection, schedule: Q01DX Z (sc), vehicle: water): 150 % of control

SMILES: N=[N+]=CC(=O)OCC(N)C(=O)O (configuration not stated)
- T/C (dose: 3.0 mg/kg/injection, schedule: Q01DX Z (sc), vehicle: saline): 105 % of control
- T/C (dose: 4.0 mg/kg/injection, schedule: Q01DX Z (sc), vehicle: water): 110 % of control
- T/C (dose: 5.0 mg/kg/injection, schedule: Q01DX Z (sc), vehicle: saline): 110 % of control
- T/C (dose: 6.72 mg/kg/injection, schedule: Q01DX Z (sc), vehicle: water): 110 % of control
- T/C (dose: 8.0 mg/kg/injection, schedule: Q01DX Z (sc), vehicle: water): 172 % of control
- T/C (dose: 8.0 mg/kg/injection, schedule: Q02DX Z (sc), vehicle: water): 100 % of control
- T/C (dose: 8.4 mg/kg/injection, schedule: Q01DX Z (sc), vehicle: saline): 110 % of control
- T/C (dose: 11.2 mg/kg/injection, schedule: Q01DX Z (sc), vehicle: water): 110 % of control
- T/C (dose: 14.0 mg/kg/injection, schedule: Q01DX Z (sc), vehicle: saline): 120 % of control
- T/C (dose: 16.0 mg/kg/injection, schedule: Q01DX Z (sc), vehicle: water): 168 % of control
- T/C (dose: 16.0 mg/kg/injection, schedule: Q02DX Z (sc), vehicle: water): 100 % of control
- T/C (dose: 31.1 mg/kg/injection, schedule: Q01DX Z (sc), vehicle: water): 120 % of control
- T/C (dose: 32.0 mg/kg/injection, schedule: Q02DX Z (sc), vehicle: water): 100 % of control
- T/C (dose: 64.0 mg/kg/injection, schedule: Q01DX Z (sc), vehicle: water): 118 % of control
- T/C (dose: 65.0 mg/kg/injection, schedule: Q01DX Z (sc), vehicle: saline): 100 % of control
- T/C (dose: 86.1 mg/kg/injection, schedule: Q01DX Z (sc), vehicle: water): 110 % of control
- T/C (dose: 128.0 mg/kg/injection, schedule: Q02DX Z (sc), vehicle: water): 100 % of control

SMILES: Nc1ncn(C2OC(CO)C(O)C2O)c(=O)n1 (configuration not stated)
- T/C (dose: 0.5 mg/kg/injection, schedule: Q01DX009 (sc), vehicle: saline): 105 % of control
- T/C (dose: 0.5 mg/kg/injection, schedule: Q03HX024 (sc), vehicle: saline): 104 % of control
- T/C (dose: 0.75 mg/kg/injection, schedule: Q01DX009 (ip), vehicle: saline): 155 % of control
- T/C (dose: 0.75 mg/kg/injection, schedule: Q01DX009 (sc), vehicle: saline): 155 % of control
- T/C (dose: 1.0 mg/kg/injection, schedule: Q01DX009 (sc), vehicle: saline): 110 % of control and 111 % of control (2×)
- T/C (dose: 1.0 mg/kg/injection, schedule: Q03HX024 (sc), vehicle: saline): 118 % of control
- T/C (dose: 1.0 mg/kg/injection, schedule: Q05DX009 (sc), vehicle: saline): 116 % of control and 119 % of control
- T/C (dose: 1.5 mg/kg/injection, schedule: Q01DX009 (ip), vehicle: saline): 205 % of control
- T/C (dose: 1.5 mg/kg/injection, schedule: Q01DX009 (sc), vehicle: saline): 200 % of control
- T/C (dose: 2.0 mg/kg/injection, schedule: Q01DX009 (sc), vehicle: saline): 120 % of control and 121 % of control and 122 % of control
- T/C (dose: 2.0 mg/kg/injection, schedule: Q04DX003 (sc), vehicle: saline): 100 % of control
- T/C (dose: 2.0 mg/kg/injection, schedule: Q05DX009 (sc), vehicle: saline): 122 % of control and 123 % of control
- T/C (dose: 3.0 mg/kg/injection, schedule: Q01DX009 (sc), vehicle: saline): 172 % of control
- T/C (dose: 3.0 mg/kg/injection, schedule: Q04DX003 (sc), vehicle: saline): 122 % of control
- T/C (dose: 4.0 mg/kg/injection, schedule: Q01DX001 (sc), vehicle: saline): 100 % of control
- T/C (dose: 4.0 mg/kg/injection, schedule: Q03HX024 (sc), vehicle: saline): 151 % of control
- T/C (dose: 4.0 mg/kg/injection, schedule: Q04DX003 (sc), vehicle: saline): 100 % of control
- T/C (dose: 6.0 mg/kg/injection, schedule: Q01DX009 (ip), vehicle: saline): 88 % of control
- T/C (dose: 6.0 mg/kg/injection, schedule: Q01DX009 (sc), vehicle: saline): 100 % of control
- T/C (dose: 6.0 mg/kg/injection, schedule: Q04DX003 (ip), vehicle: saline): 200 % of control
- T/C (dose: 6.0 mg/kg/injection, schedule: Q04DX003 (sc), vehicle: saline): 183 % of control
- T/C (dose: 8.0 mg/kg/injection, schedule: Q01DX001 (sc), vehicle: saline): 105 % of control
- T/C (dose: 8.0 mg/kg/injection, schedule: Q01DX009 (sc), vehicle: saline): 105 % of control
- T/C (dose: 8.0 mg/kg/injection, schedule: Q03HX024 (sc), vehicle: saline): 110 % of control
- T/C (dose: 8.0 mg/kg/injection, schedule: Q04DX003 (sc), vehicle: saline): 110 % of control
- T/C (dose: 12.0 mg/kg/injection, schedule: Q01DX001 (sc), vehicle: saline): 155 % of control
- T/C (dose: 12.0 mg/kg/injection, schedule: Q04DX003 (ip), vehicle: saline): 150 % of control
- T/C (dose: 12.0 mg/kg/injection, schedule: Q04DX003 (sc), vehicle: saline): 150 % of control
- T/C (dose: 16.0 mg/kg/injection, schedule: Q01DX001 (sc), vehicle: saline): 120 % of control
- T/C (dose: 16.0 mg/kg/injection, schedule: Q01DX009 (sc), vehicle: saline): 108 % of control and 111 % of control
- T/C (dose: 16.0 mg/kg/injection, schedule: Q04DX003 (sc), vehicle: saline): 120 % of control
- T/C (dose: 16.0 mg/kg/injection, schedule: Q05DX009 (sc), vehicle: saline): 111 % of control and 113 % of control
- T/C (dose: 24.0 mg/kg/injection, schedule: Q01DX001 (ip), vehicle: saline): 155 % of control
- T/C (dose: 24.0 mg/kg/injection, schedule: Q01DX001 (sc), vehicle: saline): 166 % of control
- T/C (dose: 24.0 mg/kg/injection, schedule: Q04DX003 (sc), vehicle: saline): 105 % of control
- T/C (dose: 48.0 mg/kg/injection, schedule: Q01DX001 (ip), vehicle: saline): 166 % of control
- T/C (dose: 48.0 mg/kg/injection, schedule: Q01DX001 (sc), vehicle: saline): 166 % of control
- T/C (dose: 48.0 mg/kg/injection, schedule: Q04DX003 (ip), vehicle: saline): 100 % of control
- T/C (dose: 48.0 mg/kg/injection, schedule: Q04DX003 (sc), vehicle: saline): 122 % of control

SMILES: CC[C@H](c1ccc(O)cc1)[C@@H](CC)c1ccc(O)cc1
- T/C [1]: 100 % of control
- T/C [2]: 100 % of control
- T/C [3]: 100 % of control
